Columns and labels:
MeWo = assay: CellTiter-Glo cell proliferation inhibition, MeWo; assay type: cell-based, human; settings: for IC50: MeWo cells, CellTiter-Glo
Protocol: (§1) In this study, the CellTiter-Glo® Luminescent Cell Viability Assay kit from Promega was used to evaluate the inhibitory effects of the disclosed compounds on the proliferation of cell lines KYSE520 (a human esophageal squamous cell carcinoma cell line dependent on SHP2 for growth), MeWo (a human malignant melanoma cell line), and MV4-11 (an RTK-mutant human acute monocytic leukemia cell line).
Using essentially the same experimental materials, MeWo cells (ATCC, catalog #HTB-65) were treated similarly: when thawing the cells, the cryovial was rapidly shaken in a 37 °C water bath to thaw the cells within 1 minute. The thawed cell suspension was mixed with MEM/EBSS culture medium containing 10% FBS (HyClone, catalog #SH30024.01), centrifuged at 1000 rpm for 5 minutes, and the supernatant was discarded. The cell pellet was resuspended in 5 mL of complete culture medium (MEM/EBSS medium containing 10% FBS), placed in a cell culture flask with 25 cm^2 of bottom area, and cultured in a cell culture incubator at 37 °C, 95% humidity, and 5% CO2. Cell passaging was performed when the cell confluence reached approximately 80%. During cell passaging, the old culture medium was discarded, the cells were washed once with DPBS, and 1 mL of trypsin was added to digest the cells. When the cells dispersed into single cells and detached from the bottom of the cell culture flask, 3 mL of new complete culture medium was added to stop the digestion. After thoroughly mixing the cell suspension, 1/5 of the cell suspension was retained, 5 mL of new complete culture medium was added, and after thorough mixing, the cells were placed in a cell culture flask for further culture. Cell plating was performed when the cell confluence again reached approximately 80%. During cell plating, following the cell passaging method, 1/5 of the cell suspension was retained for further culture, and the remaining 4/5 of the cell suspension was placed in a 15 mL centrifuge tube. Cell viability was determined using the trypan blue exclusion method to ensure that cell viability was above 90%. A cell suspension with a density of 2.22 × 10^4 cells/mL was prepared using MEM/EBSS culture medium containing 5% FBS. 90 µL of the cell suspension was added to a 96-well cell culture plate, resulting in a cell density of 2000 viable cells/well in the cell culture plate. A control group without cells and without compounds, containing only complete culture medium (i.e., culture medium control), and a control group without compounds but containing cells (i.e., cell control) were set up. The cell plate was cultured overnight in the cell culture incubator. First, a 10 mM stock solution of the compound (Example compound and positive control compound 11a-1) in DMSO was serially diluted with DMSO at a 3-fold dilution, down to the 9th concentration. A 10th concentration containing only DMSO (without the compound) was also prepared as a control. Then, the DMSO solutions containing different concentrations of the compound were diluted 100-fold with complete culture medium, resulting in a 1% DMSO concentration in each solution. Finally, 10 µL of each solution was added to the corresponding wells of the cell culture plate, resulting in a starting compound concentration of 10 µM, with a 3-fold dilution between adjacent concentrations, and a 0.1% DMSO concentration in the cell culture plate. The cell plates were then incubated in a cell culture incubator for 72 hours.
(§2) For endpoint detection, CellTiter-Glo reagent (Promega, catalog number #G7573, CellTiter-Glo® Luminescent Cell Viability Assay Kit) was melt and each cell plate was moved to room temperature for equilibration for 30 minutes. 75 µL (KYSE520 cells) or 50 µL (MeWo cells and MV 4-11 cells) of CellTiter-Glo was added to each well of the corresponding cell plate. The plates were shaken on a track-mounted shaker for 2 minutes to fully lyse the cells. The cell plates were kept at room temperature for 8 minutes to stabilize the luminescence signal. […]

MV4-11 = assay: CellTiter-Glo cell proliferation inhibition, MV4-11; assay type: cell-based, human; settings: for IC50: Homo sapiens, MV4-11 cells, 72 hours, CellTiter-Glo, read-out: IC50 (µM) M V4-11
Excerpt: as §1
Using essentially the same experimental materials, MV4-11 cells (Nanjing Cobio Biotechnology Co., Ltd., Catalog #CBP60522) were treated similarly: when thawing the cells, the cryovial was rapidly shaken in a 37 °C water bath to thaw within 1 minute. The thawed cell suspension was mixed with IMDM culture medium containing 10% FBS (HyClone, Catalog #SH30228.01), centrifuged at 1000 rpm for 7 minutes, and the supernatant was discarded. The cell pellet was resuspended in 5 mL of complete culture medium (IMDM medium containing 10% FBS) placed in a cell culture flask with 25 cm^2 of bottom area, and cultured in a cell culture incubator at 37 °C, 95% humidity, and 5% CO2. Cell passaging was performed when the cell density reached approximately 10^6 cells/mL. During cell passaging, the old cell suspension was thoroughly mixed, 1/5 of the cell suspension was retained, and 4 mL of new complete culture medium was added. After thorough mixing, the cells were placed back in the cell culture incubator for further culture. Cell plating was performed when the cell density again reached approximately 10^6 cells/mL. During cell plating, following the cell passage method, 1/5 of the cell suspension was retained for continued culture, and the remaining 4/5 of the cell suspension was placed in a 15 mL centrifuge tube. Cell viability was determined using the trypan blue exclusion method to ensure that cell viability was above 90%. A cell suspension with a density of 1.11 × 10^5 viable cells/mL was prepared using complete culture medium. 90 µL of the cell suspension was added to a 96-well cell culture plate, resulting in a cell density of 10000 viable cells/well. A control group without cells and without compounds, containing only complete culture medium (i.e., culture medium control) and a control group without compounds but containing cells (i.e., cell control) were set up. The cell plate was incubated overnight in the cell culture incubator. First, a 10 mM stock solution of the compound (Example compound and positive control compound 11a-1) in DMSO was serially diluted with DMSO at a 3-fold dilution, down to the 9th concentrations. A 10th concentration containing only DMSO (without the compound) was also prepared as a control. Then, the DMSO solutions containing different concentrations of the compound were diluted 100-fold with complete culture medium, resulting in a DMSO concentration of 1% in each solution. Finally, 10 µL of each solution was added to the corresponding wells of a cell culture plate, resulting in an initial compound concentration of 10 µM, with a 3-fold dilution between adjacent concentrations, and a DMSO concentration of 0.1% in the cell culture plate. The cell plate was then incubated in a cell culture incubator for 72 hours.
as §2, with “signal. A multi-mode microplate reader (PerkinEImer, Envision 2105 Multimode plate Read) was used to full-wavelength scan the luminescence value of each well.” for “signal.”

Row | Compound | IC50 (MV4-11) | IC50 against MV4-11 cells, fold lower than 11a-1 (MV4-11; relative to 11a-1 (5.13 µM)) | IC50 (MeWo; Homo sapiens, MeWo, 72 h) | IC50 (MeWo; 72 hours) | IC50 against Mewo cells, fold lower than 11a-1 (MeWo; relative to 11a-1 (3.10 µM))
1 | O=C(Nc1ccc(-c2cc3cc(F)c(-c4nnn[nH]4)cc3n2C2CCC2)cc1)C(=O)Nc1ccc(N2CCC(C3COC3)CC2)cc1 [Example 20] | > 10 µM | – | 0.042 µM | – | –
2 | CC(C)(O)C1CCN(c2ccc(NC(=O)C(=O)Nc3ccc(-c4cc5cc(F)c(-c6nnn[nH]6)cc5n4C4CCC4)cc3)cc2)CC1 [Example 33] | > 10 µM | – | 0.117 µM | – | –
3 | CC1(CO)CCN(c2ccc(NC(=O)C(=O)Nc3ccc(-c4cc5cc(F)c(-c6nnn[nH]6)cc5n4C4CCC4)cc3)cc2)CC1 [Example 40] | 0.269 µM | – | 0.073 µM | – | –
4 | O=C(Nc1ccc(-c2cc3cc(F)c(-c4nnn[nH]4)cc3n2C2CCC2)cc1)C(=O)Nc1ccc(N2CCC3(CCOC3)C2)cc1 (stereo not drawn) [Example 61] | 3.03 µM | – | 0.115 µM | – | –
5 | O=C(Nc1ccc(-c2cc3cc(F)c(-c4nnn[nH]4)cc3n2C2CCC2)cc1)C(=O)Nc1ccc(N2CCC3(CCOC3)CC2)cc1 [Example 67] | > 10 µM | – | 0.038 µM | – | –
6 | CC1(n2c(-c3ccc(NC(=O)C(=O)Nc4ccc(N5CCC6(CCOC6)CC5)cc4)cc3)cc3cc(F)c(-c4nnn[nH]4)cc32)CC1 [Example 70] | 4.25 µM | – | 0.213 µM | – | –
7 | O=C(Nc1ccc(-c2cc3cc(F)c(-c4nnn[nH]4)cc3n2C2CCC2)cc1)C(=O)Nc1ccc(N2CCC3(CC2)CC(CO)C3)cc1 [Example 96] | > 10 µM | – | 0.103 µM | – | –
8 | CC1(n2c(-c3ccc(NC(=O)C(=O)Nc4ccc(N5CCC6(CC5)CC(CO)C6)cc4)cc3)cc3cc(F)c(-c4nnn[nH]4)cc32)CCC1 [Example 97] | 0.305 µM | – | 0.11 µM | – | –
9 | O=C(Nc1ccc(-c2cc3cc(F)c(-c4nnn[nH]4)cc3n2C2CCC2)cc1)C(=O)Nc1ccc(N2CC3CC(O)CC3C2)cc1 (stereo not drawn) [Example 116] | 0.263 µM | – | 0.067 µM | – | –

These reach a lower IC50 (MV4-11). Values come first.

Row | IC50 (MV4-11) | IC50 against MV4-11 cells, fold lower than 11a-1 (MV4-11; relative to 11a-1 (5.13 µM)) | Compound | IC50 (MeWo; Homo sapiens, MeWo, 72 h) | IC50 (MeWo; 72 hours) | IC50 against Mewo cells, fold lower than 11a-1 (MeWo; relative to 11a-1 (3.10 µM))
10 | 0.108 µM | – | O=C(Nc1ccc(-c2cc3cc(F)c(-c4nnn[nH]4)cc3n2C2CCC2)cc1)C(=O)Nc1ccc(N2CCC(CCO)CC2)cc1 [Example 25] | 0.04 µM | – | –
11 | 0.127 µM | – | O=C(Nc1ccc(-c2cc3cc(F)c(-c4nnn[nH]4)cc3n2C2CCC2)cc1)C(=O)Nc1ccc(N2CC3(CCOCC3)C2)cc1 [Example 57] | 0.096 µM | – | –
12 | 0.06 µM | 85 fold | CC1(n2c(-c3ccc(NC(=O)C(=O)Nc4ccc(N5CCC6(CCOC6)CC5)cc4)cc3)cc3cc(F)c(-c4nnn[nH]4)cc32)CCC1 [Example 68] | 0.06 µM | 0.031 µM | 100 fold
13 | 0.173 µM | – | O=C(Nc1ccc(-c2cc3cc(F)c(-c4nnn[nH]4)cc3n2C2CCC2)cc1)C(=O)Nc1ccc(N2CCC3(CCOCC3)CC2)cc1 [Example 76] | 0.041 µM | – | –
14 | 0.094 µM | – | CC1(n2c(-c3ccc(NC(=O)C(=O)Nc4ccc(N5CCC6(CCOCC6)CC5)cc4)cc3)cc3cc(F)c(-c4nnn[nH]4)cc32)CCC1 [Example 77] | 0.034 µM | – | –
15 | 0.095 µM | – | O=C(Nc1ccc(-c2cc3cc(F)c(-c4nnn[nH]4)cc3n2C2CCC2)cc1)C(=O)Nc1ccc(N2CCC3(CC(O)C3)C2)cc1 (stereo not drawn) [Example 89] | 0.036 µM | – | –
16 | 0.123 µM | – | O=C(Nc1ccc(-c2cc3cc(F)c(-c4nnn[nH]4)cc3n2C2CCC2)cc1)C(=O)Nc1ccc(N2CCC3(CCC(O)C3)C2)cc1 (stereo not drawn) [Example 92] | 0.098 µM | – | –
17 | 0.237 µM | – | CC1(O)CC2(CCN(c3ccc(NC(=O)C(=O)Nc4ccc(-c5cc6cc(F)c(-c7nnn[nH]7)cc6n5C5CCC5)cc4)cc3)CC2)C1 [Example 94] | 0.041 µM | – | –
18 | 0.126 µM | – | O=C(Nc1ccc(-c2cc3cc(F)c(-c4nnn[nH]4)cc3n2C2CCC2)cc1)C(=O)Nc1ccc(N2CCC3(CCC(O)C3)CC2)cc1 (stereo not drawn) [Example 100] | 0.038 µM | – | –
19 | 0.115 µM | – | O=C(Nc1ccc(-c2cc3cc(F)c(-c4nnn[nH]4)cc3n2C2CCC2)cc1)C(=O)Nc1ccc(N2CCC3(CCC(O)CC3)CC2)cc1 [Example 108] | 0.034 µM | – | –
20 | 0.133 µM | – | CC1(O)CCC2(CCN(c3ccc(NC(=O)C(=O)Nc4ccc(-c5cc6cc(F)c(-c7nnn[nH]7)cc6n5C5CCC5)cc4)cc3)CC2)CC1 [Example 110] | 0.086 µM | – | –
21 | 0.156 µM | – | O=C(Nc1ccc(-c2cc3cc(F)c(-c4nnn[nH]4)cc3n2C2CCC2)cc1)C(=O)Nc1ccc(N2CC3COCC3C2)cc1 (stereo not drawn) [Example 114] | 0.078 µM | – | –

From patent EP4741383A1, “COMPOUND AND USE THEREOF AS ANTI-CANCER DRUG” (Tyligand Bioscience (Shanghai) Limited, priority 2023, dated 2025)
